Data reported in patent US20150368248A1, “2-SUBSTITUTED-6-BIARYLMETHYLAMINO-9-CYCLOPENTYL-9H-PURINE DERIVATIVES, USE THEREOF AS MEDICAMENTS, AND PHARMACEUTICAL COMPOSITIONS” (UNIVERZITA PALACKEHO V OLOMOUCI, priority 2013, published 2015).

Experiments:
HUVEC cells = assay: Tube formation assay on Matrigel; format: cell-based, human; details: 24 h treatment
Protocol: For an evaluation of tube formation, HUVEC cells in endothelial cell growth medium (ECGM) containing tested compound were seeded onto Matrigel® (BD) coated ibidi angiogenesis slides (15-well, ibidi GmbH, Munich, Germany). After 24 h, images were taken using the Olympus BX50 miscoscope with DP Controller system. Evaluation of formation of tubes was expressed as a number of tubes and number of nodes of treated cells compared with untreated control using specific “in house” software.

[1] = test system: HepG2, PLC and Hep3B cells; assay: Analysis of proliferation (cell counter); format: cell-based, human; details: 0.2 μM
Protocol: 6×10^4 cells were seeded on 12-well plates and incubated with inhibitors at different concentrations for 3 days. Cell numbers were determined at various time points after trypsinization using a cell counter (CASY, Scharfe Systems, Reutlingen, Germany). Three independent experiments were performed in triplicates.

DEN-induced hepatoma = assay: Diethylnitrosamine-induced liver cancer and drug intervention; format: in vivo, C57BL/6J mice; details: 3 cycles of 10 days, i.p., breaks of 7 days
Protocol: To initiate tumor development in the liver, 14-day-old C57BL/6J mice were intraperitoneally injected with a single dose of diethylnitrosamine (DEN, 25 mg/kg). After 8 month, pharmacological intervention was administrated in DEN-induced mice by 3 cycles of treatment with compounds for 10 days and a release from compounds for 7 days between the cycles. Either 5 mg/kg BA-12 or 1 mg/kg BP-14 was intraperitoneally injected in 100 μl of 0.01% DMSO. Control mice obtained 100 μl solvent only. Thereafter, mice were sacrificed and livers were fixed in 4% formaldehyde. Two researchers independently scored the diameters of neoplasia that could be monitored at the liver surface. Cancerous nodules with a diameter of up to 1 cm, covering more than 97% of all visible hepatomas, were included into the analysis. […] All animal experiments were performed according to the Austrian guidelines for animal care and protection.

[2] = test system: caspases-3/7 in Hep3B carcinoma cells; assay: Caspase-3/7 activity in lysates of treated cells (Example 33); format: cell-based, human; details: 24 h treatment, concentration of 3xIC50
Protocol: Measurements of proapoptotic properties of BP14 were based on quantification of enzymatic activities of caspases-3/7. For caspase assays, treated cells were harvested by centrifugations and homogenized in an extraction buffer (10 mM KCl, 5 mM Hepes, 1 mM EDTA, 1 mM EGTA, 0.2% CHAPS, inhibitors of proteases, pH 7.4) on ice for 20 min. The homogenates were clarified by centrifugation at 10,000 g for 20 min at 4° C., then proteins were quantified by the Bradford method and diluted to the same concentration. Lysates were then incubated for 5 h with 100 μM Ac-DEVD-AMC as substrate (Sigma-Aldrich) in an assay buffer (25 mM PIPES, 2 mM EGTA, 2 mM MgCl2, 5 mM DTT, pH 7.3). The fluorescence of the product was measured using a Fluoroskan Ascent microplate reader (Labsystems, Helsinki, Finland) at 346 nm/442 nm (ex/em).

[3] = Xenografted tumor formation and drug intervention; format: in vivo; details: SCID, mouse, in vivo, ip; mice, intraperitoneal; read-out: maximum tolerated dose (MTD)
Protocol: (§1) BrdU incorporation into cell nuclei directly indicates cell proliferation. Cultured cells were grown in medium containing 10 μM 5-bromo-2′-deoxy-uridine (BrdU) for 1 hour. After removing labeling medium, cells were fixed and DNA denatured with a fixing/denaturing solution containing 2 M HCl for 30 minutes at 37° C. To analyze BrdU incorporation in vivo, 200 μl Ringer solution containing 1 mg BrdU was intraperitoneally injected into xenografted mice 2 hours prior to analysis. Mice were sacrificed and tumor tissue was fixed in 4% formaldehyde and processed for immunohistochemistry. The incorporation of BrdU into cellular DNA was detected using a monoclonal anti-BrdU antibody (Sigma, St. Louis, USA) followed by incubation with a peroxidase-conjugated secondary antibodies (Calbiochem, LaJolla, USA) at dilutions of 1:10,000.
(§2) 5×10^6 human hepatoma cells were re-suspended in 100 μl Ringer solution and subcutaneously injected into severe combined immunodeficient (SCID) mice (Harlan Laboratories, San Pietro, Italy). Tumor volume was determined as described (36). Pharmacological intervention was performed in tumor-bearing mice for 17 days by daily intraperitoneal injection of either 5 mg/kg BA-12 or 1 mg/kg BP-14 in 100 μl of 0.01% DMSO. Control tumor-bearing mice were daily intraperitoneally injected with 100 μl of 0.01% DMSO only. All animal experiments were performed according to the Austrian guidelines for animal care and protection.
(§3) Mice were sacrificed and tumors were fixed as described (37). 4 μm thick, paraffin-embedded sections were stained with hematoxylin and eosin (H&E). For immunohistochemistry, sections were stained with anti-BrdU (Sigma, St. Louis, USA), 1:200. Biotinylated secondary antibodies were used at 1:200. The immunoperoxidase procedure was performed using a Vectastain Elite ABC kit (Vector Laboratories, CA, USA) as described by the manufacturer.

[4] = test system: HepG2- and PLC-derived tumors; assay: Xenografted tumor formation and drug intervention; format: in vivo
Protocol: as §1, §2, §3

[5] = test system: RNA polymerase II phosphorylation at serines 2 and 5; assay: Immunoblot of RNA polymerase II phosphorylation (CDK7/CDK9 substrate); format: cell-based, human
Protocol: We monitored levels of phosphorylation of RNA polymerase II, which is a substrate of CDK7 and CDK9, in cells treated with compound BP14 (FIG. 3). Immunoblotting analysis was performed as described in Example 33 with using appropriate antibodies for anti-phospho RNA polymerase II (S5) (Bethyl Laboratories, USA), anti-phospho RNA polymerase II (S2) (Bethyl Laboratories, USA), anti-RNA polymerase II (clone ARNA-3, Millipore) and β-actin (clone C4, Santa Cruz Biotechnology, USA).
Immunoblotting was performed as described previously (36). The primary antibodies were used at the dilutions: anti-phospho-Ser5 RNA Pol II (CDK7; Bethyl Laboratories, Montgomery, USA), 1:1,000; anti-phospho-Ser2 RNA Pol II (CDK9; Bethyl Laboratories, Montgomery, USA), 1:1,000; anti-RNA Pol II (Santa Cruz Biotechnology, Santa Cruz, USA), 1:1,000; anti-PARP (Cell Signaling Technology, Beverly, USA), 1:1,000; anti-β-actin (Sigma, St. Louis, USA), 1:2.500. Horseradish peroxidase-conjugated secondary antibodies (Calbiochem, LaJolla, USA) were used at dilutions of 1:10,000.

Compound	branching points, number of tubes, total tube length and mean tube length (HUVEC cells)	proliferation kinetics [1]	decrease of tumor nodules as compared to untreated control mice (DEN-induced hepatoma) [fold]	activity of caspase-3/7 compared with the untreated control [2]	MTD at 17 days [3] [mg/kg]	decrease of S-phase-positive cells by BrdU incorporation in tumors ([4]; HepG2- and PLC-derived tumors) [fold]	tumor volumes of xenografts ([4]; HepG2 and PLC xenografts, 1 mg/kg daily i.p., 17 days)	PLC tumors ([4]; PLC xenograft, 1 mg/kg daily i.p., 17 days)	RNA polymerase II phosphorylation on serine 5 (CDK7) and serine 2 (CDK9) ([5]; HepG2 and PLC cells, below 1 μM, 24 hours)	phosphorylation at serines 2 and 5 of RNA polymerase II ([5]; mainly AKH3sp and Hep3B cell lines, 24 h)
NC1CCC(Nc2nc(NCc3ccc(-c4ccco4)nc3)c3ncn(C4CCCC4)c3n2)CC1 (centres unmarked) [BP14, N^2-(4-amino-cyclohexyl)-9-cyclopentyl-N^6-(6-furan-2-yl-pyridin-3-ylmethyl)-9H-purine-2,6-diamine]	significantly reduced	cytostatic effect	1.3	twenty-fold increase	1	2	strongly reduced tumor volumes	regression of PLC tumors	strong reduction of RNA polymerase II phosphorylation	rapid decrease in phosphorylation at serines 2 and 5 of RNA polymerase II
NC1CCC(Nc2nc(NCc3ccc(-c4ccccc4O)nc3)c3ncn(C4CCCC4)c3n2)CC1 (centres unmarked) [BP20, N^2-(4-amino-cyclohexyl)-9-cyclopentyl-N^6-[6-(2-hydroxy-phenyl)-pyridin-3-ylmethyl]-9H-purine-2,6-diamine]	significantly reduced	–	–	–	–	–	–	–	–	–
